According to patent publication US20240279226A1, “ERGOLINE-DERIVED AGONISTS OF THE 5-HT2A RECEPTOR” (priority 2021, published 2024):

Columns and labels:
5-HT2C receptor = 5-HT2C receptor (Homo sapiens (Human), UniProt P28335); assay: biochemical; format: binding; details: radioligand [3H]-Mesulergine, cell membrane, 27° C. 60 min
5-HT2A receptor = 5-HT2A receptor (Homo sapiens (Human), UniProt P28223); assay: biochemical; format: binding; details: radioligand [3H]-ketanserin, cell membrane, 27° C. 90 min
Experimental: Compound binding was calculated as a % inhibition of the binding of a radioactively labeled ligand specific for each receptor. Results with inhibition >50% were considered to represent significant effects. In each experiment, the respective reference compound was tested in parallel with the test compounds, and the data were compared with previous values determined at Eurofins.
Bovine Serum Albumin (BSA), calcium chloride (CaCl2)), and polyethylenimine, branched (PEI) were purchased from Sigma. Tris(hydroxymethl)aminomethane (Tris) was purchased from Alfa Aesar.
Microbeta^2 microplate counter, MicroBeta Filtermate-96, and UniFilter-96 GF/C were purchased from PerkinElmer. TopSeal was purchased from Biotss. Seven Compact pH meter was purchased from Mettler Toledo. Ultrapure water meter was purchased from Sichuan Ulupure. Benchtop Centrifuge was purchased from Hunan Xiangyi. Microplate shaker was purchased from Allsheng. 384-Well Polypropylene Microplate was purchased from Labcyte. 96 round well plate was purchased from Corning. 96 round deep well plate was purchased from Axygen. Echo was purchased from LABCYTE. • 1. Prepare the assay buffer following the table below:
• 2. […] Read the plate by using a Microbeta^2 microplate counter.
• 11. […] The IC50 is determined by fitting percentage of inhibition function of compound concentrations with Hill equation using XLfit.

5-HT2C receptor, sequence (P28335 33-458 limits assumed): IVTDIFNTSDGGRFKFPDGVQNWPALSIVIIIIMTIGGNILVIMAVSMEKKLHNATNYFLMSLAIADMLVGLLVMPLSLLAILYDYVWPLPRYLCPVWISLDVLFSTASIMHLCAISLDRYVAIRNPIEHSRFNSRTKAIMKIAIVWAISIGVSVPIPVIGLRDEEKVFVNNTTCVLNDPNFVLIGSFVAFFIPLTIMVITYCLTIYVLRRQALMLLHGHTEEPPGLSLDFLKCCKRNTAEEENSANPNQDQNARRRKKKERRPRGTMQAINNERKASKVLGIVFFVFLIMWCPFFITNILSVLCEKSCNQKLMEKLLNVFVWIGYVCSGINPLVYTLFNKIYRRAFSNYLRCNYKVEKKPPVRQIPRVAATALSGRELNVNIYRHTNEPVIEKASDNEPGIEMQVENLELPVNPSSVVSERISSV

SMILES | IC50 (5-HT2C receptor) | IC50 (5-HT2A receptor)
[2H]C([2H])([2H])N1C[C@@H](NC(=O)N(CC)OC)C=C2c3cccc4[nH]cc(c34)C[C@H]21 [Example 6a, 1-ethyl-1-methoxy-3-((6aR,9S)-7-(methyl-d3)-4,6,6a,7,8,9-hexahydroindolo[4,3-fg]quinolin-9-yl)urea] | 96 nM | 2.6 nM
[2H]C([2H])([2H])N1C[C@H](NC(=O)N(CC)OC)C=C2c3cccc4[nH]cc(c34)C[C@H]21 [Example 6b, 1-ethyl-1-methoxy-3-((6aR,9R)-7-(methyl-d3)-4,6,6a,7,8,9-hexahydroindolo[4,3-fg]quinolin-9-yl) urea] | 312 nM | 6.5 nM
